Values belong to the molecule of their own block, whether it stands above or below them.
Assays:
trypsin [1] = target: T1, trypsin (Bos taurus, UniProt P00760); test: Elution of bound trypsin from affinity polymer during ultrafiltration; settings: for elution of bound trypsin from polymer 5:1 by eluting solution: 500 mM arginine with 10 mM Ca++ in Tris pH 8, 2M KCl with 10 mM Ca++ in pH 8 Tris, 10 mM m-aminobenzamidine, data not shown
T1 sequence (P00760 24-246): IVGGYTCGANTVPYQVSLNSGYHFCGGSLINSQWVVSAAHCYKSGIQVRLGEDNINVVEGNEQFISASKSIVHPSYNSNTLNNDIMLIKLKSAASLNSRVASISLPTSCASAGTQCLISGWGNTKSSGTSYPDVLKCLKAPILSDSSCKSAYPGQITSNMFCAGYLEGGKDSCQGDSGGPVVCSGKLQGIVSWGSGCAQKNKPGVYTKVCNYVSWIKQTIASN
Description: Investigation was next conducted on the eluting characteristics of four agents (FIG. 1).
Tests were also performed to determine whether the elution of trypsin with arginine was affected by the acrylamide:monomer ratio and the polymer concentration.

trypsin [2] = target: T1, trypsin; test: Trypsin inhibition kinetics, substrate Nα-benzoyl-L-arginine p-nitroanilide; type: biochemical
trypsin [3] = target: T1, trypsin; settings: with respect to substrate benzoyl-L-arginine p-nitroanilide; literature; cited from earlier work
trypsin [4] = settings: Adamski-Medda et al, 1981; cited from earlier work
chymotrypsin = settings: Adamski-Medda et al, 1981; cited from earlier work
trypsin [5] = target: T1, trypsin; test: Trypsin storage stability with/without affinity polymer (trypsin activity); type: physicochemical; settings: without affinity polymer
Description: Trypsin can be adsorbed by the affinity polymer and stored until this enzyme is required for use or further processing. […] Without the affinity polymer, the trypsin retained only half of its activity at 25° C. after three days even though this solution was stabilized by adding an appropriate amount of calcium. It was further shown that at 4° C. without the affinity polymer trypsin retained approximately 70% of its original activity after 10 days.

elution of bound trypsin from polymer 5:1 by eluting solution (trypsin [1]): eluted easily
Molecule: [Cl-].[K+] [KCl]

Molecule: N=C(N)NCCC[C@H](N)C(=O)O [arginine, L-arginine]
elution of bound trypsin from polymer 5:1 by eluting solution (trypsin [1]): eluted easily | eluting characteristics of agents (FIG. 1) (trypsin [1]; polymer 5:1 at 0.75% containing 300 mg trypsin, four agents compared): most effective eluting agent | Ki (trypsin [2]): 41 ± 3 mM | mechanism of trypsin inhibition (trypsin [2]; with respect to substrate Nα-benzoyl-L-arginine p-nitroanilide, data not shown): competitive inhibitor

elution of bound trypsin from polymer 5:1 by eluting solution (trypsin [1]): eluted easily | inhibitor strength among ortho, meta, para aminobenzamidine (trypsin [2]; position of amino group compared): strongest inhibitor
Molecule: N=C(N)c1cccc(N)c1 [m-aminobenzamidine]
trypsin inhibition kinetics (mechanism) (trypsin [3]): competitive manner

Molecule: dextran-p-aminobenzamidine
trypsin in the filtrate in presence of macroligand (trypsin [4]): 24% | chymotrypsin in the filtrate in presence of macroligand (chymotrypsin): 65%

B1: trypsin (protein, UniProt P00760 24-246, looked up)
Serine protease 1: T1 sequence (P00760 24-246)
original trypsin activity retained (trypsin [5]; 4° C., 10 days): approximately 70% | trypsin activity retained (trypsin [5]; 25° C., three days, calcium added): half

From patent US4973554A, “Affinity process for trypsin purification and stabilization” (National Research Council of Canada, priority 1987, dated 1990)
